Some test systems named below: UACC-62; RXF 393; SF-268; SNB-75; SF-539; OVCAR-3; PC-3; K562; MDA-MB-231; SK-MEL-5; SF-295; KM12; Hs-578T; CAKI-1; UACC-257; HCT-15; HOP-62; IGROV-1.
What all share (assay): NCI anticancer screen, dose series, 48 h

Experimental findings from ChEMBL document CHEMBL1201862, “PubChem BioAssay data set” (2004) are described below.

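Test compounds were applied to cells in 96-well plates for 48 hours at 5 doses. GI50 is the concentration that inhibits growth by half.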 The source made the active and inactive calls. Rule as the data show it: active = GI50 up to about 1.1 µM and inactive = higher. Where only a bound is given, the exact number is not on record here.

In the case of `COc1cccc(C2C3=C(COC3=O)Oc3cc4c(cc32)OCO4)c1` (stereo not drawn), the GI50 with UACC-62 was 0.0134 µM (active); in the experiment with RXF 393, 0.0251 µM (active); in the experiment on SF-268, 0.0575 µM (active); with SNB-75, 0.0194 µM (active); in the experiment with SF-539, 0.0211 µM (active); in the experiment with OVCAR-3 it was 0.0219 µM (active). Further, the GI50 is 0.0196 µM (active) in the experiment with PC-3; < 0.0135 µM (active) in the experiment with K562; 0.0718 µM (active) with MDA-MB-231; 0.0175 µM (active) with SK-MEL-5; < 0.0303 µM (active) in the experiment on SF-295; < 0.0142 µM (active) with KM12. Also, the GI50 with Hs-578T was < 0.0176 µM (active); in the experiment with CAKI-1, 0.0229 µM (active); in the experiment with UACC-257, 0.0303 µM (active); in the experiment on HCT-15, 0.0172 µM; in the experiment with HOP-62 it was 0.033 µM (active); with IGROV-1, 0.0738 µM (active).

As for `COc1cc2c(c(OC)c1OC)-c1ccc(SC)c(=O)cc1[C@@H](O)CC2`, the GI50 in the experiment on UACC-62 is 0.000469 µM (active); in the experiment with RXF 393 it was 0.000317 µM (active); with SF-268, 0.00128 µM (active); in the experiment with SNB-75 it was 0.01 µM (active); in the experiment with SF-539, 0.000356 µM (active); in the experiment on PC-3, 0.000353 µM (active). Besides, the GI50 was 0.00948 µM (active) in the experiment with K562; 0.00115 µM (active) in the experiment with MDA-MB-231; 0.000225 µM (active) with SF-295; 0.000234 µM (active) with KM12; 0.000261 µM (active) in the experiment on Hs-578T; 0.00166 µM (active) with CAKI-1. Moreover, the GI50 in the experiment on UACC-257 was 0.0252 µM (active); in the experiment on HCT-15, 0.000605 µM; with HOP-62, 0.000834 µM (active); with IGROV-1 it was 0.00067 µM (active).

Regarding `CC(=O)O[C@H]1CCn2c3c(c(C)c21)C(=O)C(N1CC1)=C(C)C3=O`, the GI50 in the experiment on UACC-62 was 9.04 µM (inactive); with SF-268 it was > 10 µM (inactive); in the experiment with SNB-75, 8.51 µM (inactive); in the experiment with SF-539 it was > 10 µM (inactive); with OVCAR-3, > 10 µM (inactive); in the experiment with PC-3 it was > 10 µM (inactive). The GI50 was > 10 µM (inactive) with K562; > 10 µM (inactive) in the experiment with MDA-MB-231; 2.57 µM (inactive) with SK-MEL-5; 5.11 µM (inactive) in the experiment on SF-295; > 10 µM (inactive) in the experiment on KM12; > 10 µM (inactive) in the experiment on Hs-578T. The GI50 in the experiment with CAKI-1 was > 10 µM (inactive); in the experiment on UACC-257 it was > 10 µM (inactive); in the experiment with HCT-15, greater than 10 µM; with HOP-62, 5.2 µM (inactive); in the experiment on IGROV-1, > 10 µM (inactive).

For `CCc1ccccc1NC(=O)/C=C/c1ccccc1`, the GI50 in the experiment on UACC-62, in the experiment with SF-268, with SNB-75, in the experiment with SF-539, with OVCAR-3 and with PC-3 was > 100 µM (inactive) throughout. For the same molecule, the GI50 with K562 is > 100 µM (inactive); in the experiment with MDA-MB-231, > 100 µM (inactive); with SK-MEL-5 it was > 100 µM (inactive); with SF-295, > 100 µM (inactive); in the experiment with KM12 it was > 100 µM (inactive); with Hs-578T it was 70.6 µM (inactive). Besides, the GI50 was > 100 µM (inactive) with CAKI-1, > 100 µM (inactive) in the experiment on UACC-257, greater than 100 µM in the experiment on HCT-15 and 49 µM (inactive) with HOP-62.

For `CSc1c(C#N)c(O)n(-c2ccc(Cl)cc2)c(=O)c1C(C)=O`, the GI50 is 69.3 µM (inactive) in the experiment on UACC-62; 33.6 µM (inactive) in the experiment on RXF 393; 61.7 µM (inactive) in the experiment on SF-268; 94.8 µM (inactive) in the experiment with SNB-75; 32.9 µM (inactive) in the experiment with SF-539; 48.3 µM (inactive) with OVCAR-3. In addition, the GI50 in the experiment with PC-3 is > 100 µM (inactive); in the experiment on K562, 25.5 µM (inactive); in the experiment with MDA-MB-231, 88.3 µM (inactive); with SK-MEL-5, 89.1 µM (inactive); with KM12 it was > 100 µM (inactive); in the experiment with Hs-578T it was > 100 µM (inactive). The GI50 in the experiment with CAKI-1 is 18.7 µM (inactive); in the experiment on UACC-257, > 100 µM (inactive); in the experiment on HCT-15, 27.3 µM.

For the molecule `CCOC(=O)CC/C(C)=N\n1c(Cc2ccc(Cl)cc2)n[nH]c1=O`, the GI50 with UACC-62, in the experiment with RXF 393, in the experiment with SF-268, in the experiment with SNB-75, in the experiment on SF-539 and in the experiment on OVCAR-3 was > 100 µM (inactive) in each case. Also, the GI50 in the experiment on PC-3, in the experiment on K562, in the experiment on MDA-MB-231, with SK-MEL-5, in the experiment on SF-295 and in the experiment on KM12 was > 100 µM (inactive) throughout. Further, the GI50 is > 100 µM (inactive) in the experiment with Hs-578T; > 100 µM (inactive) in the experiment with CAKI-1; > 100 µM (inactive) with UACC-257; greater than 100 µM in the experiment on HCT-15; > 100 µM (inactive) in the experiment on HOP-62; > 100 µM (inactive) in the experiment with IGROV-1.

Regarding `CC(C)CCCC(=O)CCCCCCC(=O)CCN(O)C(=O)C(N)CO` (stereo not drawn), the GI50 with UACC-62 is 16.7 µM (inactive); in the experiment with RXF 393 it was 11 µM (inactive); with SF-268, 26.2 µM (inactive); in the experiment on SNB-75, 10.8 µM (inactive); in the experiment with SF-539, 16 µM (inactive); in the experiment on OVCAR-3 it was 17.3 µM (inactive). Also, the GI50 with PC-3 was 12.6 µM (inactive); with K562, 28.3 µM (inactive); in the experiment with MDA-MB-231 it was 16.2 µM (inactive); in the experiment on SK-MEL-5, 17.5 µM (inactive); with SF-295, 18.3 µM (inactive); with KM12, 17.6 µM (inactive). Also, the GI50 in the experiment on Hs-578T is 28.5 µM (inactive); in the experiment with CAKI-1 it was 16 µM (inactive); in the experiment on UACC-257, 17.3 µM (inactive); in the experiment on HCT-15, 15.3 µM; in the experiment with HOP-62, 21.2 µM (inactive); in the experiment on IGROV-1, 13.5 µM (inactive).

With `CCOC(=O)/C(=N\OC)C(O)C(F)(F)F` (stereo not drawn), the GI50 in the experiment with UACC-62, in the experiment on RXF 393, with SF-268, in the experiment on SNB-75, in the experiment with SF-539 and in the experiment on PC-3 was > 100 µM (inactive) throughout. Moreover, the GI50 in the experiment with K562, in the experiment on MDA-MB-231, in the experiment on SK-MEL-5, with SF-295, in the experiment on KM12 and with Hs-578T was > 100 µM (inactive) in each case. For the same molecule, the GI50 in the experiment on CAKI-1 is > 100 µM (inactive); in the experiment with UACC-257, > 100 µM (inactive); in the experiment on HCT-15, greater than 100 µM; in the experiment with HOP-62, > 100 µM (inactive); with IGROV-1 it was > 100 µM (inactive).

For `CCCCCCCCCCCCCCCCCCNc1ccn(C2OC(COP(=O)(O)OCC3OC(n4ccc(NC(=O)CCCCCCCCCCCCCCCCC)nc4=O)C(OC(C)=O)C3OC(C)=O)C(OC(C)=O)C2OC(C)=O)c(=O)n1` (stereo not drawn), the GI50 in the experiment with UACC-62, with RXF 393, with SF-268, in the experiment with SNB-75, in the experiment with SF-539 and in the experiment on OVCAR-3 was > 100 µM (inactive) each time. Moreover, the GI50 in the experiment on PC-3 was > 100 µM (inactive); in the experiment with K562, 0.0551 µM (active); in the experiment with MDA-MB-231, > 100 µM (inactive); in the experiment with SK-MEL-5 it was > 100 µM (inactive); with SF-295, > 100 µM (inactive); in the experiment on KM12, > 100 µM (inactive). The GI50 with Hs-578T was > 100 µM (inactive); in the experiment with CAKI-1, > 100 µM (inactive); in the experiment on UACC-257 it was > 100 µM (inactive); in the experiment with HCT-15, greater than 100 µM; with HOP-62 it was > 100 µM (inactive); with IGROV-1, > 100 µM (inactive).
